Experimental data published in US11033539B2, “Compounds of formulas (VII), (VIII), (IX), (XI), (XII), (XIII), and (XIV) as muscarinic receptor 4(M4) antagonists for treating neurological diseases” (Neurocrine Biosciences, Inc., priority 2015, dated 2021).

Experiments:
[1] = molecular target: human M1 receptor (Homo sapiens (Human), UniProt P11229); assay: Radioligand (tritiated N-methylscopolamine) binding assay, M1; conditions: CHO cell membranes expressing human M1; 1.5 nM tritiated N-methylscopolamine; 90 min, 37° C.; read-out: Ki against M1 receptor (Table 21, M1)
Experimental: (§1) Binding affinity (Ki) of compounds was measured by inhibition of radioligand binding to membranes from CHO cells expressing human M1, M2, M3, M4 and M5 receptors. Membranes were prepared by nitrogen cavitation and differential centrifugation as previously described (Hoare et al., Mol. Pharmacol. 2003 March; 63(3): 751-65). The radioligand employed was tritiated N-methylscopolamine, used at a concentration of 1.5 nM. A dose-response of twelve concentrations of compound was used, ranging from 10 μM to […]. The assay buffer was 50 mM HEPES, 100 mM NaCl, 5 mM MgCl2, 1 mM ethylenediaminetetraacetic acid, pH-adjusted to pH 7.4. Membranes, radioligand and compound were incubated together for 90 minutes at 37° C., in a total volume of 150 μl in a 96-well plate. Receptor-bound radioligand was then collected by harvesting the assay over glass fiber filters pretreated with polyethylenimine to trap the cell membranes, using rapid vacuum filtration. Harvesting and radioactivity counting was conducted as previously described (see, e.g., Hoare et al., Mol. Pharmacol. 2003 63(3):751-65); Erratum at Mol. Pharmacol. 2005 July; 68(1): 260).

[2] = molecular target: human M2 receptor (Homo sapiens (Human), UniProt P08172); assay: Radioligand (tritiated N-methylscopolamine) binding assay, M2; conditions: CHO cell membranes expressing human M2; 1.5 nM tritiated N-methylscopolamine; 90 min, 37° C.; read-out: Ki against M2 receptor (Table 21, M2)
Experimental: as §1

[3] = molecular target: human M3 receptor (Homo sapiens (Human), UniProt P20309); assay: Radioligand (tritiated N-methylscopolamine) binding assay, M3; conditions: CHO cell membranes expressing human M3; 1.5 nM tritiated N-methylscopolamine; 90 min, 37° C.; read-out: Ki against M3 receptor (Table 21, M3)
Experimental: as §1

[4] = molecular target: human M4 receptor (Homo sapiens (Human), UniProt P08173); assay: Radioligand (tritiated N-methylscopolamine) binding assay, M4; conditions: Ki against the M4 receptor; membranes from CHO cells expressing human M4; tritiated N-methylscopolamine 1.5 nM; read-out: Ki
Summary of the method: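 Ki values come from displacement of 1.5 nM radioligand from membranes of receptor-expressing CHO cells, with filter-trapped radioactivity counted after rapid vacuum filtration. Twelve compound concentrations (10 μM to […]) were incubated for 90 min at 37 °C at pH 7.4.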

[5] = molecular target: human M5 receptor (Homo sapiens (Human), UniProt P08912); assay: Radioligand (tritiated N-methylscopolamine) binding assay, M5; conditions: CHO cell membranes expressing human M5; 1.5 nM tritiated N-methylscopolamine; 90 min, 37° C.; read-out: Ki against M5 receptor (Table 21, M5)
Experimental: as §1

Sequence of human M1 receptor (P11229 whole entry): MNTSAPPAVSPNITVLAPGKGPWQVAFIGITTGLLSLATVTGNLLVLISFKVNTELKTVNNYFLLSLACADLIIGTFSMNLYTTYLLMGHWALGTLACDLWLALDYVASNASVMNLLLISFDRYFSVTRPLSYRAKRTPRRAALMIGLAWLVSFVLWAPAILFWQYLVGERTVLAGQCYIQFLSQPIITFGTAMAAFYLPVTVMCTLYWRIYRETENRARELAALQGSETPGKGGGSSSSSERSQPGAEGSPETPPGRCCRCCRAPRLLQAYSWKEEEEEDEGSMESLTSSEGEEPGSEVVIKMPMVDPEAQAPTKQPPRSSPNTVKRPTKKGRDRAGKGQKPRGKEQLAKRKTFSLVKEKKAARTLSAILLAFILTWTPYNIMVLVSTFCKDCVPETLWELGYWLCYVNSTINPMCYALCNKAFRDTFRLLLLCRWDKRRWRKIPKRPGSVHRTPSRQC
Sequence of human M5 receptor (P08912 whole entry): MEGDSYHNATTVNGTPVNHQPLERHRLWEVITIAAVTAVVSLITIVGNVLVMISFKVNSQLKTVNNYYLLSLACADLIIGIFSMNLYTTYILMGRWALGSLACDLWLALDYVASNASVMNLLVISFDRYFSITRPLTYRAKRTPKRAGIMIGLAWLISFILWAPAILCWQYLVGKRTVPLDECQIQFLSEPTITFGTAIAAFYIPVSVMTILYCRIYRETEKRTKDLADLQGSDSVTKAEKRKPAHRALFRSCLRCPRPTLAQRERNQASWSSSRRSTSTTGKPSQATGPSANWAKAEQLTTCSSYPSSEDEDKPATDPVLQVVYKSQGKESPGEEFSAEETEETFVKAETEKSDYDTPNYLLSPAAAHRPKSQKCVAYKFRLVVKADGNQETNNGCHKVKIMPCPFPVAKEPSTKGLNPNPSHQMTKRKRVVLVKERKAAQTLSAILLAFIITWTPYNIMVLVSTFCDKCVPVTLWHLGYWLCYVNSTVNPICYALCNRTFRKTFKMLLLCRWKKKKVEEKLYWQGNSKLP
Sequence of human M2 receptor (P08172 whole entry): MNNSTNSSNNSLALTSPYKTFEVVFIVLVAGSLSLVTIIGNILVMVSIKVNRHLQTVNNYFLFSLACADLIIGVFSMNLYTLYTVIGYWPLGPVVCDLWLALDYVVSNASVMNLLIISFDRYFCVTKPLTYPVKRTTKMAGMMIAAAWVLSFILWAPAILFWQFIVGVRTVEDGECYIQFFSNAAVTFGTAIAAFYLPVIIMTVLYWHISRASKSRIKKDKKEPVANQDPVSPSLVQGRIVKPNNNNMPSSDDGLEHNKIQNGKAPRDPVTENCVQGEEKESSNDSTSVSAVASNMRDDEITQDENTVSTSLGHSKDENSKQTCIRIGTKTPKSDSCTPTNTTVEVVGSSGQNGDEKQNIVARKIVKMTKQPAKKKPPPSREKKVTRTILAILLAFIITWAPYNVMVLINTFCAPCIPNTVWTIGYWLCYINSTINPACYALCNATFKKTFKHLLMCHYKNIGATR
Sequence of human M4 receptor (P08173 whole entry): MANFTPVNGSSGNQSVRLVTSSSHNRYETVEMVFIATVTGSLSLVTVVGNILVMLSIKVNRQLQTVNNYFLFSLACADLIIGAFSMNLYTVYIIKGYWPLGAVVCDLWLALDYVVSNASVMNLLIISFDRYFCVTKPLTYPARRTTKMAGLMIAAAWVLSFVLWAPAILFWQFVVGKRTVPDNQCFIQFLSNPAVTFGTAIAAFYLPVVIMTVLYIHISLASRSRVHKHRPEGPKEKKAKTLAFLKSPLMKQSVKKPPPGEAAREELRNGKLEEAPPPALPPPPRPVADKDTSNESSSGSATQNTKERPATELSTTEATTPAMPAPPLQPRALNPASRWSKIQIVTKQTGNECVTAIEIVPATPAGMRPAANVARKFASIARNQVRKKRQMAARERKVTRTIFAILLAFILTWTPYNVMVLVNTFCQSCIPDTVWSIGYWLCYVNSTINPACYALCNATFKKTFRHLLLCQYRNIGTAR
Sequence of human M3 receptor (P20309 whole entry): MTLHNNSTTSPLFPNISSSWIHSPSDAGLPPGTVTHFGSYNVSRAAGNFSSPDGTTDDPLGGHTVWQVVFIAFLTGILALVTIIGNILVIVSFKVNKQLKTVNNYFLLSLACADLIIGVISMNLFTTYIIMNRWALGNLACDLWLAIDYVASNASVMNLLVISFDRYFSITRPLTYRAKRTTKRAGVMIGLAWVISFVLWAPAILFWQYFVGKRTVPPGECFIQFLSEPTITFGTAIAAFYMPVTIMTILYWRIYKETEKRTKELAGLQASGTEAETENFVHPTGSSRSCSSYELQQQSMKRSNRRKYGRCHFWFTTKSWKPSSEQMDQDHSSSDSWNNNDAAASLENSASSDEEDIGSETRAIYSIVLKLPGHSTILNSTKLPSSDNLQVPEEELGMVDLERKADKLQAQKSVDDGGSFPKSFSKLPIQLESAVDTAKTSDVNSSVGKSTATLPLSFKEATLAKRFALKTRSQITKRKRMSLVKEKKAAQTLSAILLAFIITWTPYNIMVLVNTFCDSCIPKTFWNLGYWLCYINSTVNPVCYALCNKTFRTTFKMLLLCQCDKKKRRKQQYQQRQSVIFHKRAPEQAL

| Compound | Ki [1] | Ki [2] | Ki [3] | Ki [4] | Ki [5] |
| --- | --- | --- | --- | --- | --- |
| C[C@@H]1CN(c2cc(F)cc(C#N)c2)CCN1C(=O)NCCC1CCN(Cc2ccccc2)CC1 [3-11, (2R)-N-[2-(1-benzylpiperidin-4-yl)ethyl]-4-(3-cyano-5-fluorophenyl)-2-methylpiperazine-1-carboxamide] | > 1000 nM | 100 to 1000 nM | > 1000 nM | < 10 nM | > 1000 nM |
| C[C@@H]1CN(c2cc(F)c(F)c(F)c2)CCN1C(=O)NCCC1CCN(Cc2ccccc2)CC1 [3-12, (2R)-N-[2-(1-benzylpiperidin-4-yl)ethyl]-2-methyl-4-(3,4,5-trifluorophenyl)piperazine-1-carboxamide] | 100 to 1000 nM | 10 to 100 nM | > 1000 nM | < 10 nM | > 1000 nM |
| C[C@@H]1CN(c2ccc(OC(F)(F)F)cn2)CCN1C(=O)NCCC1CCN(Cc2ccccc2)CC1 [3-13, (2R)-N-[2-(1-benzylpiperidin-4-yl)ethyl]-2-methyl-4-[5-(trifluoromethoxy)pyridin-2-yl]piperazine-1-carboxamide] | 100 to 1000 nM | 100 to 1000 nM | > 1000 nM | < 10 nM | > 1000 nM |
| C[C@@H]1CN(c2ccc(C(F)(F)F)cn2)CCN1C(=O)NCCC1CCN(Cc2ccccc2)CC1 [3-14, (2R)-N-[2-(1-benzylpiperidin-4-yl)ethyl]-2-methyl-4-[5-(trifluoromethyl)pyridin-2-yl]piperazine-1-carboxamide] | 100 to 1000 nM | 10 to 100 nM | > 1000 nM | < 10 nM | > 1000 nM |
| C[C@@H]1CN(c2cc(F)c(F)c(F)c2)CCN1C(=O)NC[C@H](O)C1CCN(Cc2ccccc2)CC1 [3-16, (2R)-N-[(2R)-2-(1-benzylpiperidin-4-yl)-2-hydroxyethyl]-2-methyl-4-(3,4,5-trifluorophenyl)piperazine-1-carboxamide] | > 1000 nM | > 1000 nM | > 1000 nM | < 10 nM | > 1000 nM |
| C[C@@H]1CN(c2cc(F)c(F)c(F)c2)CCN1C(=O)NCCC1CCN(Cc2ccccc2)CC1CO (stereo partly drawn) [3-17, (2R)-N-{2-[1-benzyl-3-(hydroxymethyl)piperidin-4-yl]ethyl}-2-methyl-4-(3,4,5-trifluorophenyl)piperazine-1-carboxamide] | > 1000 nM | 100 to 1000 nM | > 1000 nM | < 10 nM | > 1000 nM |
| C[C@@H]1CN(c2ccc(F)c(C#N)c2)CCN1C(=O)NC[C@@H](O)C1CCN(Cc2ccccc2)CC1 [3-18, (2R)-N-[(2S)-2-(1-benzylpiperidin-4-yl)-2-hydroxyethyl]-4-(3-cyano-4-fluorophenyl)-2-methylpiperazine-1-carboxamide] | > 1000 nM | > 1000 nM | > 1000 nM | < 10 nM | > 1000 nM |
| O=C(NCCC1CCN(Cc2ccccc2)CC1CO)N1CCN(c2cc(F)c(F)c(F)c2)CC1 (stereo not drawn) [3-19, N-{2-[1-benzyl-3-(hydroxymethyl)piperidin-4-yl]ethyl}-4-(3,4,5-trifluorophenyl)piperazine-1-carboxamide] | > 1000 nM | 100 to 1000 nM | > 1000 nM | < 10 nM | > 1000 nM |
| C[C@@H]1CN(c2ccc(OC(F)(F)F)c(C#N)c2)CCN1C(=O)NC[C@@H](O)C1CCN(Cc2ccccc2)CC1 [3-21, (2R)-N-[(2S)-2-(1-benzylpiperidin-4-yl)-2-hydroxyethyl]-4-[3-cyano-4-(trifluoromethoxy)phenyl]-2-methylpiperazine-1-carboxamide] | > 1000 nM | 100 to 1000 nM | > 1000 nM | < 10 nM | > 1000 nM |
| C[C@@H]1CN(c2cc(F)c(F)c(F)c2)CCN1C(=O)NC[C@@H](O)C1CCN(Cc2ccccc2)CC1 [3-22, (2R)-N-[(2S)-2-(1-benzylpiperidin-4-yl)-2-hydroxyethyl]-2-methyl-4-(3,4,5-trifluorophenyl)piperazine-1-carboxamide] | > 1000 nM | 100 to 1000 nM | > 1000 nM | < 10 nM | > 1000 nM |
| C[C@@H]1CN(c2ccc(C#N)cn2)C[C@H](C)N1C(=O)NCCC1CCN(Cc2ccccc2)CC1 [3-23, (2S,6R)-N-[2-(1-benzylpiperidin-4-yl)ethyl]-4-(5-cyanopyridin-2-yl)-2,6-dimethylpiperazine-1-carboxamide] | > 1000 nM | 100 to 1000 nM | > 1000 nM | < 10 nM | > 1000 nM |
| C[C@@H]1CN(c2ccc(F)c(C#N)c2)CCN1C(=O)NCCC1CCN(Cc2ccccc2)CC1 [4-1, (2R)-N-[2-(1-benzylpiperidin-4-yl)ethyl]-4-(3-cyano-4-fluorophenyl)-2-methylpiperazine-1-carboxamide] | 100 to 1000 nM | 100 to 1000 nM | > 1000 nM | < 10 nM | > 1000 nM |
| C[C@@H]1CN(c2ccc(C(F)(F)F)cc2)CCN1C(=O)NCCC1CCN(Cc2ccccc2)CC1 [4-5, (2R)-N-[2-(1-benzylpiperidin-4-yl)ethyl]-2-methyl-4-[4-(trifluoromethyl)phenyl]piperazine-1-carboxamide] | 100 to 1000 nM | 10 to 100 nM | > 1000 nM | < 10 nM | > 1000 nM |
| C[C@H]1CN(c2ccc(OC(F)(F)F)cc2)CCN1C(=O)NCCC1CCN(Cc2ccccc2)CC1 [4-10, (2S)-N-[2-(1-benzylpiperidin-4-yl)ethyl]-2-methyl-4-[4-(trifluoromethoxy)phenyl]piperazine-1-carboxamide] | 100 to 1000 nM | 10 to 100 nM | 100 to 1000 nM | < 10 nM | 100 to 1000 nM |
| C[C@@H]1CN(c2nc(Cl)cc(C#N)n2)C[C@H](C)N1C(=O)NCCC1CCN(Cc2ccccc2)CC1 [4-11, (2S,6R)-N-[2-(1-benzylpiperidin-4-yl)ethyl]-4-(4-chloro-6-cyanopyrimidin-2-yl)-2,6-dimethylpiperazine-1-carboxamide] | 100 to 1000 nM | 10 to 100 nM | > 1000 nM | < 10 nM | > 1000 nM |
| C[C@@H]1CN(c2cc(C(F)(F)F)ccn2)CCN1C(=O)NCCC1CCN(Cc2ccccc2)CC1 [4-12, (2R)-N-[2-(1-benzylpiperidin-4-yl)ethyl]-2-methyl-4-[4-(trifluoromethyl)pyridin-2-yl]piperazine-1-carboxamide] | 100 to 1000 nM | 10 to 100 nM | 100 to 1000 nM | < 10 nM | > 1000 nM |
| Cc1ccc(N2CCN(C(=O)NCCC3CCN(Cc4ccccc4)CC3)[C@H](C)C2)cc1F [4-13, (2R)-N-[2-(1-benzylpiperidin-4-yl)ethyl]-4-(3-fluoro-4-methylphenyl)-2-methylpiperazine-1-carboxamide] | > 1000 nM | 100 to 1000 nM | > 1000 nM | < 10 nM | > 1000 nM |
| C[C@@H]1CN(c2ccc(F)c(F)c2)CCN1C(=O)NCCC1CCN(Cc2ccccc2)CC1 [4-15, (2R)-N-[2-(1-benzylpiperidin-4-yl)ethyl]-4-(3,4-difluorophenyl)-2-methylpiperazine-1-carboxamide] | 100 to 1000 nM | 100 to 1000 nM | > 1000 nM | < 10 nM | > 1000 nM |
| C[C@@H]1CN(C(=O)NCCC2CCN(Cc3ccccc3)CC2)CCN1c1cc(F)c(F)c(F)c1 [4-17, (3R)-N-[2-(1-benzylpiperidin-4-yl)ethyl]-3-methyl-4-(3,4,5-trifluorophenyl)piperazine-1-carboxamide] | > 1000 nM | 100 to 1000 nM | > 1000 nM | < 10 nM | > 1000 nM |
| C[C@@H]1CN(C(=O)NCCC2CCN(Cc3ccccc3)CC2)CCN1c1ccc(OC(F)(F)F)cc1 [4-18, (3R)-N-[2-(1-benzylpiperidin-4-yl)ethyl]-3-methyl-4-[4-(trifluoromethoxy)phenyl]piperazine-1-carboxamide] | > 1000 nM | 100 to 1000 nM | > 1000 nM | < 10 nM | > 1000 nM |
| Cc1nc(N2CCN(C(=O)NCCC3CCN(Cc4ccccc4)CC3)[C@H](C)C2)ccc1F [4-19, (2R)-N-[2-(1-benzylpiperidin-4-yl)ethyl]-4-(5-fluoro-6-methylpyridin-2-yl)-2-methylpiperazine-1-carboxamide] | 100 to 1000 nM | 100 to 1000 nM | > 1000 nM | < 10 nM | > 1000 nM |
